Results as given in patent US7855297B2, “Amide derivatives and medicinal use thereof” (Mitsubishi Tanabe Pharma Corporation, priority 2000, dated 2010).

How the values were obtained:
[1] = tested on: C5a-stimulated neutrophil; experiment: Migrating ability of C5a-stimulated neutrophil; assay type: cell-based; details: 1.5 h, human neutrophils, C5a 100 pmol/L, 90 min, read-out: IC50 value, concentration at which migration of C5a-stimulated neutrophil is inhibited by 50%
Method: A neutrophil fraction was separately taken from human peripheral venous blood using Lympholyte-poly (Cedarlane) and suspended in RPMI 1640 medium (GIBCO BRL) supplemented with 0.1% bovine serum albumin (BSA). To. this neutrophil fraction (5×10^6 cells/mL) was added Calcein-AM (final concentration 5 μM, FUNAKOSHI), and the mixture was incubated at 37° C. for 30 min. The cells were washed by centrifugation and suspended to a concentration of 1×10^6 cells/mL. The migration was evaluated by adding neutrophils to chemotaxicell (pore size: 3 μm, KURABO) and measuring the neutrophils that migrated outside the chemotaxicell. First, 100 pmol/L of C5a solution was added to 24 well plate (500 μL/well) and chemotaxicell was set in the well. […] The fluorescent intensity of each well was measured by Cyto Fluor II (Ex: 485, Em: 530). The rate (% inhibition) of the inhibition of migration of C5a-stimulated neutrophil by the test compound was calculated by the following formula, wherein the fluorescence intensity of neutrophil that migrated by C5a stimulation without addition of the test compound is Max, the fluorescent intensity of neutrophil that migrated without addition of test compound and without C5a stimulation is Min, and the fluorescent intensity of neutrophil that migrated by C5a stimulation with the addition of the test compound is Test. % Inhibition=100−[(Test-Min)/(Max-Min)]×100 […]

C5a receptor = target: T1, C5a receptor (Homo sapiens, UniProt P21730); experiment: C5a receptor binding assay ([125I]-human C5a, dcAMP-U937 cells); details: [125I]-C5a 200 pM, 4° C., 2 hr, read-out: IC50 value, concentration at which binding of [125I]-human C5a is inhibited by 50%
T1 construct: U-937 cell was stimulated with 1 mM dibutyryl cyclic AMP (dcAMP, SIGMA) for 2 days to express the C5a receptor; endogenous in cells; host or cells: U-937 cells (human histiocytic lymphoma) differentiated with 1 mM dibutyryl cAMP for 2 days; whole cells, stored frozen and thawed before use
T1 sequence (P21730 1-350): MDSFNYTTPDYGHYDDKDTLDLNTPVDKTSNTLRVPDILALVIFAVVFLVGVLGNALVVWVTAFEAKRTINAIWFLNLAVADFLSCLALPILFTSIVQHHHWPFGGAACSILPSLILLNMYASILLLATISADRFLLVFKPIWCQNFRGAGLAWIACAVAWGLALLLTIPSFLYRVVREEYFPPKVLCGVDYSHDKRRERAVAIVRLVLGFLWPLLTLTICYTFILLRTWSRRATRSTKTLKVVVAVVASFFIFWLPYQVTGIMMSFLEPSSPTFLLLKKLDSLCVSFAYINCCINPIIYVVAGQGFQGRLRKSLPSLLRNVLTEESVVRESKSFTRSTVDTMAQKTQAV
Method: The C5a receptor binding inhibitory action of C5a and the test compound was evaluated by a receptor binding assay comprising reacting human cell line U-937 (human histiocytic lymphoma line), which expresses the C5a receptor, with [^125I]-human C5a (Amersham Pharmacia Biotech) in a MultiScreen (MILLIPORE). First, U-937 cell was stimulated with 1 mM dibutyryl cyclic AMP (dcAMP, SIGMA) for 2 days to express the C5a receptor (dcAMP-U937 cell), and suspended in a binding buffer [50 mM HEPES, 1 mM CaCl2, 5 mM MgCl2, 0.5% bovine albumin (BSA, SIGMA), 0.02% NaN3 (pH 7.2)] and stored at −80° C. […] After drying the MultiScreen, the radioactivity on the filter was measured using a gamma counter.
The rate (% inhibition) of inhibition of C5a binding by the test compound was calculated by the following formula using the count value obtained without addition of the test compound as Total, the count value obtained with addition of non-labeled C5a as Non, and the count value obtained with addition of the test compound as Test. % Inhibition=100−[(Test-Non)/(Total-Non)]×100 […]

SMILES: CC(C)c1ccc(N(Cc2ccc(N(C)C)cc2)C(=O)C2CCCc3ccccc32)cc1 (stereo not drawn) [Example 4, N-[(4-dimethylaminophenyl)methyl]-N-(4-isopropylphenyl)-1,2,3,4-tetrahydronaphthalene-1-carboxamide]
- IC50 [1]: 100 nM
- IC50 (C5a receptor): 104 nM
- melting point: 121 °C
